In patent US20220144812A1, “QUINOLINE DERIVATIVES AND THEIR USE FOR THE TREATMENT OF CANCER” (Epizyme, Inc., priority 2019, published 2022) one finds IC50 data, which are given here for 29 compounds.

One experiment has as its target T1, EP300 (P300(1048-1664)) (Homo sapiens, UniProt Q09472).
T1 construct: P300(1048-1664)
T1 sequence (Q09472 1048-1664): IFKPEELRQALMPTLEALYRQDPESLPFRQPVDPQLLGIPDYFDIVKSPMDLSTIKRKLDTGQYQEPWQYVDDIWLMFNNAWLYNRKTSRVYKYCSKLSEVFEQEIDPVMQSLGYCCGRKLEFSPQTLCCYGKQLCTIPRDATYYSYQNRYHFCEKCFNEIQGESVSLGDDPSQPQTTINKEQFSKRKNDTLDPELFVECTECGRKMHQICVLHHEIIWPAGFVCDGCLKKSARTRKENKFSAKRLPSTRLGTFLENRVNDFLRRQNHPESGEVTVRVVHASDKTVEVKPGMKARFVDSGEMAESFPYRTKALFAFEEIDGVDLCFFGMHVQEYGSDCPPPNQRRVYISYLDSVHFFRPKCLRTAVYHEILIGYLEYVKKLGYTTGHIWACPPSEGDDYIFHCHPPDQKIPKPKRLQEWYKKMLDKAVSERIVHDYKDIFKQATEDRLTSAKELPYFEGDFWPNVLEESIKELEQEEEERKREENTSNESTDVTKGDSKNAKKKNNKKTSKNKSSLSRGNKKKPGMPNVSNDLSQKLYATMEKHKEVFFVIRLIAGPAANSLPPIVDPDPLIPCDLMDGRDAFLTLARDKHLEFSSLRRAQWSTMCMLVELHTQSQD
Kind of experiment: Biochemical assay for EP300, SAMDI. As to conditions: EP300, SAMDI; read-out: EP300 Biochemistry IC50. An excerpt:
The following example describes materials and methods relating to a biochemical assay for EP300. IC50 values (micromolar (μM)) are summarized in Table 1, Table 2, and Table 3 under the column labeled: “EP300 Biochemistry IC50 (micromolar).”

For a further experiment, the system named is 647V cells. Kind of experiment: High throughput proliferation (HTP) assay. It counts as cell-based. As to conditions: Homo sapiens, 647-V, high throughput proliferation; read-out: CREBBP HTP IC50. Summed up: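 Exponentially growing 647V cells in DMEM with 15% FBS were treated in triplicate with increasing compound concentrations at 37° C, 5% CO2. Viable cell number was read by CellTiter-Glo luminescence on day 7; IC50 in micromolar.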

Experiment [1] concerns H3K18Ac in HB-CLS-2 cells. The experiment can be described thus: H3K18AC in-cell western (ICW) assay. It counts as cell-based. As to conditions: H3K18Ac in-cell western; read-out: CREBBP ICW IC50. Summed up:
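HB-CLS-2 cells seeded 16–24 hours before 2 hr compound treatment at 37° C, 5% CO2, then methanol-fixed. H3K18Ac detected with rabbit monoclonal primary (overnight, 4° C) and 800CW anti-rabbit secondary; DRAQ5 stained DNA. Plates imaged at 700 and 800 nm for integrated intensity; IC50 in μM.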

The target of a further experiment is T2, CREBBP (1084-1701) (Homo sapiens, UniProt Q92793).
T2 construct: measured in the following biochemical assay using CREBBP (1084-1701); purchased
The experiment can be described thus: Biochemical assay for CREBBP (1084-1701), SAMDI. As to conditions: SAMDI, read-out: CREBBP Biochemistry IC50. Summed up: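 CREBBP (1084-1701) preincubated with compound 30 min at RT, then substrate mix (biotin-H3 11-25 K14R/K23R peptide, acetyl-CoA) added for 30 min at RT. Reaction stopped with formic acid, neutralised with sodium bicarbonate. Peptide acetylation read by SAMDI mass spectrometry to derive IC50.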

T2 sequence (Q92793 1084-1701): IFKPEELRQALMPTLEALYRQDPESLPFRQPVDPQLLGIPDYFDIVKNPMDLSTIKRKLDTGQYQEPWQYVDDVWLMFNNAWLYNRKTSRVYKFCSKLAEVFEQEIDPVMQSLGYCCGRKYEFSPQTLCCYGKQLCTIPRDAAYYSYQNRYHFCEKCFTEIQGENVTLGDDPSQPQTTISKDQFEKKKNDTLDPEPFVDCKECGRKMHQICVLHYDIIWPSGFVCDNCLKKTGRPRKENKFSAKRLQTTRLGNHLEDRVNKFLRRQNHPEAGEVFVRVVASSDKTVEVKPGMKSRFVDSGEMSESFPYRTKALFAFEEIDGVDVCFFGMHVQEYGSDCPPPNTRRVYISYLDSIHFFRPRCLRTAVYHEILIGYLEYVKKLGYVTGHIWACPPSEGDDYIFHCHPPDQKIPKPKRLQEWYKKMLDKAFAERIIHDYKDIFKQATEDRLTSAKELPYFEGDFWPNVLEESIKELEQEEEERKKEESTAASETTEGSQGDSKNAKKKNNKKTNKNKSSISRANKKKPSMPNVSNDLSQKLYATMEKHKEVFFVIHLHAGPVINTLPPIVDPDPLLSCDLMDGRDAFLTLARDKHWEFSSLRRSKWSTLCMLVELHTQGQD

Turning to `CCn1ncc(CN(C)C(=O)c2nc(-c3cc(C)cc(NC4CNC(=O)C4)c3)nc3ccc(Cl)cc23)c1C` (centres unmarked) [Compound 539], the IC50 at EP300 (P300(1048-1664)) was determined as 0.0262 µM; in the experiment with 647V cells, 1.34 µM; in experiment [1] it was 0.714 µM; at CREBBP (1084-1701), 0.0304 µM.
On the same counts, the results for `CNCCNc1ccc(-c2cc(C(=O)N(C)Cc3cnc(C4CC4)n3C)c3cc(Cl)ccc3n2)nc1C` [Compound 540] are 0.0061 µM, 0.0233 µM, 0.0828 µM and 0.0205 µM.
On the same counts, the results for `CCc1ncc(CN(C)C(=O)c2cc(-c3cc(-c4ncc[nH]4)n(C)n3)nc3ccc(Cl)cc23)n1C` [Compound 541] are 0.0027 µM, 0.0854 µM, 0.104 µM and 0.0112 µM.
In the same order, the values of `CCn1ncc(CN(C)C(=O)c2cc(-c3cc(-c4ncc[nH]4)n(C)n3)nc3ccc(Cl)cc23)c1C` [Compound 542] are 0.0024 µM, 0.0566 µM, 0.0535 µM and 0.00692 µM.
With `CNCCNc1ccc(-c2cc(C(=O)N(C)Cc3cncn3C)c3cc(Cl)ccc3n2)nc1C` [Compound 543], the IC50 at EP300 (P300(1048-1664)) is 8.96 µM; in the experiment on 647V cells, 2.26 µM; in experiment [1], 6.82 µM; on CREBBP (1084-1701) it was 8.54 µM.
In the same order, the values of `CNCCNc1ccc(-c2cc(C(=O)N(C)Cc3cnc(C(C)C)n3C)c3cc(Cl)ccc3n2)nc1C` [Compound 544] are 0.006 µM, 0.0425 µM, 0.124 µM and 0.0146 µM.
With `CCc1ncc(CN(C)C(=O)c2nc(-c3cc(N)c4c[nH]nc4c3)nc3ccc(Cl)cc23)n1C` [Compound 546], the IC50 amounted to 0.0337 µM on EP300 (P300(1048-1664)), 0.0964 µM in the experiment with 647V cells, 0.113 µM in experiment [1] and 0.0137 µM on CREBBP (1084-1701).
Turning to `CCn1ncc(CN(C)C(=O)c2cc(-c3cc(NC4CNC4)cc(C)n3)nc3ccc(Cl)cc23)c1C` [Compound 547], the IC50 on EP300 (P300(1048-1664)) is 0.0125 µM; with 647V cells it was 0.105 µM; in experiment [1] it was 0.55 µM; on CREBBP (1084-1701), 0.0238 µM.
With `CCc1onc(CN(C)C(=O)c2cc(-c3ccc(NCCNC)c(C)n3)nc3ccc(Cl)cc23)c1C` [Compound 548], the concentration for half-maximal inhibition (IC50) is 2.16 µM at EP300 (P300(1048-1664)), 1.86 µM in the experiment with 647V cells, 2.15 µM in experiment [1] and 2.02 µM at CREBBP (1084-1701).
In the same order, the values of `CCc1ncc(CN(C)C(=O)c2cc(-c3ccc(NC4CN(C(C)=O)C4)c(C)n3)nc3ccc(Cl)cc23)n1C` [Compound 549] are 0.0124 µM, 0.15 µM, 0.24 µM and 0.0349 µM.
On the same counts, the results for `CCn1ncc(CN(C)C(=O)c2cc(-c3cc(-c4ncc[nH]4)n(C)n3)nc3ccc(COC)cc23)c1C` [Compound 550] are 0.0141 µM, 0.247 µM, 0.128 µM and 0.0322 µM.
Consider `CCn1ncc(CN(C)C(=O)c2nc(-c3cc(NC)c4cn[nH]c4c3)nc3ccc(Cl)cc23)c1C` [Compound 551], for which the IC50 came out at 0.137 µM on EP300 (P300(1048-1664)), 0.233 µM in the experiment on 647V cells, 0.153 µM in experiment [1] and 0.027 µM at CREBBP (1084-1701).
On the same counts, the results for `CCn1ncc(CN(C)C(=O)c2nc(-c3cc(C)nc(N[C@@H]4CCNC4)c3)nc3ccc(Cl)cc23)c1C` [Compound 552] are 0.0063 µM, 0.0722 µM, 0.0497 µM and 0.0134 µM.
On the same counts, the results for `CCn1ncc(CN(C)C(=O)c2cc(-c3ccc(NCCNC)c(C)n3)nc3ccc(Cl)cc23)c1C1CC1` [Compound 553] are 0.535 µM, 0.763 µM, 0.467 µM and 0.0525 µM.
For the compound `CCn1ncc(CN(C)C(=O)c2nc(-c3cc(C)cc(NC4CNCC4(F)F)c3)nc3ccc(Cl)cc23)c1C` (centres unmarked) [Compound 554], the 50% inhibitory concentration (IC50) was 0.173 µM at EP300 (P300(1048-1664)), 1.67 µM in the experiment with 647V cells, 1.07 µM in experiment [1] and 0.0535 µM at CREBBP (1084-1701).
As for `CCc1ncc(CN(C)C(=O)c2nc(-c3cc(Cl)cc(NCCNC)c3)nc3ccc(Cl)cc23)n1C` [Compound 555], the IC50 on EP300 (P300(1048-1664)) came out at 0.0071 µM; in the experiment with 647V cells, 0.102 µM; in experiment [1] it was 0.226 µM; at CREBBP (1084-1701), 0.0228 µM.
On the same counts, the results for `CCn1ncc(CN(C)C(=O)c2cc(-c3nn(C)c(C(=O)NC)c3C)nc3ccc(Cl)cc23)c1C` [Compound 556] are ≥ 50 µM, 6.29 µM, 20 µM and ≥ 50 µM.
On the same counts, the results for `CCn1nc(C)c(CN(C)C(=O)c2cc(-c3ccc(NCCNC)c(C)n3)nc3ccc(Cl)cc23)c1C` [Compound 557] are 5.2 µM, 6.8 µM, 18.4 µM and 14.1 µM.
On the same counts, the results for `CCn1ncc(CN(C)C(=O)c2nc(-c3ccc4n[nH]c(NC)c4c3)nc3ccc(Cl)cc23)c1C` [Compound 558] are 0.0015 µM, 0.0763 µM, 0.0393 µM and 0.00427 µM.
For `CCn1ncc(CN(C)C(=O)c2cc(-c3ccc(NCCNC)c(C)n3)nc3ccc(Cl)cc23)c1COC` [Compound 559], the IC50 is 2.05 µM on EP300 (P300(1048-1664)), 1.24 µM in the experiment on 647V cells, 0.838 µM in experiment [1] and 0.593 µM at CREBBP (1084-1701).
On the same counts, the results for `CCc1ncc(CN(C)C(=O)c2cc(-c3ccc(NCCNC)c(C)n3)nc3ccc(Cl)cc23)o1` [Compound 560] are 0.412 µM, 0.448 µM, 0.242 µM and 0.142 µM.
In the same order, the values of `CCc1ncc(CN(C)C(=O)c2cc(-c3ccc(NC4CN(C)C4)c(C)n3)nc3ccc(Cl)cc23)n1C` [Compound 561] are 0.0065 µM, 0.0228 µM, 0.0582 µM and 0.0191 µM.
In the same order, the values of `CCn1ncc(CN(C)C(=O)c2nc(-c3cc4c(NC)n[nH]c4cc3C)nc3ccc(Br)cc23)c1C` [Compound 562] are 0.0149 µM, 0.0879 µM, 0.154 µM and 0.0494 µM.
In the case of `CCc1ncc(CN(C)C(=O)c2nc(-c3cc4c(NC)n[nH]c4cc3C)nc3ccc(Cl)cc23)n1C` [Compound 563], the IC50 at EP300 (P300(1048-1664)) stood at 0.0057 µM; with 647V cells, 0.0375 µM; in experiment [1], 0.0554 µM; at CREBBP (1084-1701) it was 0.0135 µM.
On the same counts, the results for `CNCCNc1ccc(-c2cc(C(=O)N(C)Cc3cn[nH]c3C)c3cc(Cl)ccc3n2)nc1C` [Compound 564] are ≥ 50 µM, 9.53 µM, 20 µM and ≥ 50 µM.
On the same counts, the results for `CCc1ncc(CN(C)C(=O)c2cc(-c3ccc(NCCNC)c(F)n3)nc3ccc(Cl)cc23)n1C` [Compound 565] are 0.0338 µM, 0.193 µM, 0.153 µM and 0.0511 µM.
On the same counts, the results for `CCc1ncc(CN(C)C(=O)c2nc(-c3cc(C)cc(NC4CNC4)c3)nc3ccc(Cl)cc23)n1C` [Compound 566] are 0.0113 µM, 0.338 µM, 0.816 µM and 0.0375 µM.
With `CCc1ncc(CN(C)C(=O)c2cc(-c3cc(NCCNC)cc(OC)n3)nc3ccc(Cl)cc23)n1C` [Compound 567], the IC50 at EP300 (P300(1048-1664)) was 0.0222 µM; in the experiment on 647V cells, 0.032 µM; in experiment [1] it was 0.0779 µM; on CREBBP (1084-1701), 0.0797 µM.
In the same order, the values of `CCn1ncc(CN(C)C(=O)c2cc(-c3ccc(NCCOC)c(C)n3)nc3ccc(Cl)cc23)c1C` [Compound 568] are 0.0311 µM, 0.26 µM, 0.127 µM and 0.0236 µM.

As usually defined, the IC50 is the concentration at which inhibition is half-maximal.
